Data published in article PMC11054271, “ABCG2 Transports the Flukicide Nitroxynil and Affects Its Biodistribution and Secretion into Milk” (Pharmaceutics, 2024).
Read-outs that look alike come from different tables or passages of the source.

Tests used:
murine Abcg2 [1] = assay: Milk secretion experiment in lactating wild-type and Abcg2−/− female mice; format: in vivo; settings: FVB/N, mouse, intravenous, lactating Abcg2−/− female mice, 30 min after 10 mg/kg i.v.
Method: (§1) All in vivo experiments were carried out using wild-type and Abcg2^−/− mice aged between 8 and 17 weeks, all of >99% FVB/N genetic background, generated and gently supplied by A. H. Schinkel (Netherlands Cancer Institute). Mice were housed and handled complying with institutional and ARRIVE guidelines and European legislation (EU Directive 2010/63/EU for animal experiments). Additionally, experimental procedures were approved by the Animal Care and Use Committee of the University of León and the Junta de Castilla y León (ULE_011_2019).
(§2) Pups of approximately 10 days old were separated from their mothers (wild-type (n = 10) and Abcg2^−/− (n = 11) female mice) 3 h before beginning the experiment. Milk secretion experiments were performed as previously described. Nitroxynil solution was prepared by diluting Distomicide® (250 mg/mL) commercial solution in saline and administered at a dose of 150 μL/30 g bw into the tail vein under anesthesia with isoflurane. An amount of 200 μL oxytocin (1 IU/mL) was administrated subcutaneously 10 min before milk collection. Blood and milk samples were collected from retro-orbital sinus and mammary gland, respectively, 30 min after nitroxynil administration.
(§3) Plasma, milk and tissue samples from each animal were individually processed and analyzed without pooling, while samples from transport assays were not processed. Tissue samples were homogenized in a mixture of 50% water/50% methanol HCl 0.5% (v/v); 1 mL solution per 0.1 g tissue. The entire amount of collected milk (74.7–295.1 mg) and 100 μL plasma and tissue homogenates were processed. To each sample, 10 μL of a nitrofurantoin solution (10 μg/mL for plasma and milk and 2 μg/mL for homogenized tissues) was added as an internal standard and 150 μL acetonitrile was used to precipitate the proteins. The mixture was vortexed horizontally for 15 min and centrifugated at 10,000× g for 5 min at 4 °C. Supernatant was transferred to a new tube and dried at 40 °C under N2 stream. Samples were reconstituted in 100 μL of mobile phase and 50 μL was injected into HPLC. Standards were subjected to the same procedures as samples.
(§4) Waters 2695 separation module and Waters 2998 UV photodiode array detector set at 270 nm were used for samples analysis. Chromatographic conditions for nitroxynil detection were based on previously described methods, with minor modifications. Chromatographic separation was achieved on a reverse-phase column (Synergy 4 μm Hydro–RP 80 Å, 250 × 4.60 mm; Phenomenex®, Torrance, CA, USA) using an isocratic binary mobile phase consisting of 25 mM potassium phosphate monobasic (KH2PO4), pH 4: acetonitrile (70:30 for culture samples and 80:20 for animal samples) at a flow rate of 1 mL/min. Autosampler and column temperature were 4 °C and 40 °C, respectively. Limit of detection (LOD) and quantification (LOQ) were calculated as previously described. For cell culture samples, LOD and LOQ were 0.003 μg/mL and 0.007 μg/mL, respectively. For in vivo samples, LOD was in the range of 0.01–0.07 μg/mL and LOQ in the range of 0.03–0.15 μg/mL.

murine Abcg2 [2] = tested on: T1, murine Abcg2; assay: as above; format: in vivo; settings: FVB/N, mouse, intravenous, lactating wild-type female mice, 30 min after 10 mg/kg i.v.
T1 construct: from tissue; host or cells: whole animal: wild-type vs Abcg2-/- mice, >99% FVB/N background
Method: as §1, §2, §3, §4

human ABCG2 = biological target: T2, human ABCG2 (Homo sapiens, UniProt Q9UNQ0); assay: Transepithelial transport assay in MDCK-II cells transduced with human ABCG2; format: in vitro ADME; settings: MDCK-II hABCG2, nitroxynil 10 µM, no Ko143, read-out: Relative efflux transport ratio (BA/AB)
T2 construct: expressed in transfected cells; host or cells: MDCK-II (canine kidney) subclone, provided by A. H. Schinkel (Netherlands Cancer Institute)
T2 sequence (Q9UNQ0 1-655): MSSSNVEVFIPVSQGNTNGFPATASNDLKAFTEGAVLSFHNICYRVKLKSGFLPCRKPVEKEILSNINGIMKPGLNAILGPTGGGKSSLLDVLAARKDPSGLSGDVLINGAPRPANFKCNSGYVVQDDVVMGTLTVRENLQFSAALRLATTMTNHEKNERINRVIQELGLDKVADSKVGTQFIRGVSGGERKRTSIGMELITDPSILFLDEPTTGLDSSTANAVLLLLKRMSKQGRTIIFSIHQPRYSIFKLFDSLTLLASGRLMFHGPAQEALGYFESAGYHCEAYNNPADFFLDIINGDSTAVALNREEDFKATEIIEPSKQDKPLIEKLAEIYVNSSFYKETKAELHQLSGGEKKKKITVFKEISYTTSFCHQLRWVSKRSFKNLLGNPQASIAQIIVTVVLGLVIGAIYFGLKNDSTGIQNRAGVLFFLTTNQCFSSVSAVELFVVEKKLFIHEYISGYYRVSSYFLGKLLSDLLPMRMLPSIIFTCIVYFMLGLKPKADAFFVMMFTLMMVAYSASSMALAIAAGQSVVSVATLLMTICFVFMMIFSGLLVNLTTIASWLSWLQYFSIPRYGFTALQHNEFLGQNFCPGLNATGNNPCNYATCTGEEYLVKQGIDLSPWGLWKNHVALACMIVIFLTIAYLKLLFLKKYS
Method: Parental Madin–Darby canine kidney epithelial cells (MDCK–II) and their subclones transduced with murine (mAbcg2) and human (hABCG2) variants of ABCG2 were kindly provided by Dr. A. H. Schinkel (Netherlands Cancer Institute). Transduced MDCK–II cells with the ovine (oABCG2) and bovine (bABCG2) variants were previously generated by our group. Cells were cultured as described elsewhere.
Transepithelial transport assays were carried out as previously described with minor variations, using Hanks’ balanced salt solution (Sigma-Aldrich) supplemented with HEPES (25 mM), with or without Ko143 (1 μM), and containing or not nitroxynil 10 μM. […] At the end of the experiment, confluence of the monolayer was measured with the previously described Lucifer Yellow permeability test, with minor modifications. The appearance of nitroxynil in the opposite side of the well was measured by HPLC as later described. Active transport was expressed as relative efflux transport ratio (apically directed transport percentage divided by the basolaterally directed translocation percentage) at 4 h and referred to the initial concentration. […]
Waters 2695 separation module and Waters 2998 UV photodiode array detector set at 270 nm were used for samples analysis. […] Limit of detection (LOD) and quantification (LOQ) were calculated as previously described. […]

[3] = milk and plasma, read-out: Milk-to-plasma ratio
[4] = milk, read-out: Milk concentration
[5] = plasma, read-out: Plasma concentration

SMILES: N#Cc1cc(I)c(O)c([N+](=O)[O-])c1 [nitroxynil]
- Kp at 30 min (murine Abcg2 [1]; [3]): 0.1 ± 0.03
- concentration at 30 min (murine Abcg2 [1]; [4]): 8100 ± 1000 ng/mL
- concentration at 30 min (murine Abcg2 [1]; [5]): 62800 ± 13900 ng/mL
- Kp at 30 min (murine Abcg2 [2]; [3]): 0.3 ± 0.1
- concentration at 30 min (murine Abcg2 [2]; [4]): 15700 ± 6300 ng/mL
- concentration at 30 min (murine Abcg2 [2]; [5]): 58800 ± 11200 ng/mL
- efflux ratio at 4 h, 10 µM (human ABCG2): 8.76 ± 0.5
